The target of one assay is T1, Human recombinant 5-HT1A (Homo sapiens, UniProt P08908).
T1 construct: expressed in transfected cells
T1 sequence (P08908 1-422): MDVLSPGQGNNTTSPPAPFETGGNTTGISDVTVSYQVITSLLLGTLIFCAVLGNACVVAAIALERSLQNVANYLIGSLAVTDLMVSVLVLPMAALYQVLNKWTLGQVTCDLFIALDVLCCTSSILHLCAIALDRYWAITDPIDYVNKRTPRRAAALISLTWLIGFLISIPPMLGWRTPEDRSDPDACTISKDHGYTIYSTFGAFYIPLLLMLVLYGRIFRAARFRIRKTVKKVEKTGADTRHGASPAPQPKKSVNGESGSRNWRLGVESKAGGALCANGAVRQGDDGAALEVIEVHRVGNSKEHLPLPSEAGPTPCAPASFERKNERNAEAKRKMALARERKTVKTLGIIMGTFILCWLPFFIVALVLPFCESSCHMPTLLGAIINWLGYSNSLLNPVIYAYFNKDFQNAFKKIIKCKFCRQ
Description: Serotonin 5HT1A radioligand binding assay. As to conditions: [3H]-8-OH-DPAT. The text has this: Serotonin, 5HT1A Radioligand Binding Assay
Receptor Source: Human recombinant 5-HT1A expressed mammalian cells
Radioligand: [^3H]-8-OH-DPAT (221 Ci/mmol)
Control Compound: 8-OH-DPAT

In assay [1] the target is Human Cortex or Human recombinant 5-HT2A (Homo sapiens, UniProt P28223). Description: Serotonin 5HT2A radioligand binding assay. Conditions: [3H]-Ketanserin.
Sequence of Human Cortex or Human recombinant 5-HT2A (P28223 whole entry): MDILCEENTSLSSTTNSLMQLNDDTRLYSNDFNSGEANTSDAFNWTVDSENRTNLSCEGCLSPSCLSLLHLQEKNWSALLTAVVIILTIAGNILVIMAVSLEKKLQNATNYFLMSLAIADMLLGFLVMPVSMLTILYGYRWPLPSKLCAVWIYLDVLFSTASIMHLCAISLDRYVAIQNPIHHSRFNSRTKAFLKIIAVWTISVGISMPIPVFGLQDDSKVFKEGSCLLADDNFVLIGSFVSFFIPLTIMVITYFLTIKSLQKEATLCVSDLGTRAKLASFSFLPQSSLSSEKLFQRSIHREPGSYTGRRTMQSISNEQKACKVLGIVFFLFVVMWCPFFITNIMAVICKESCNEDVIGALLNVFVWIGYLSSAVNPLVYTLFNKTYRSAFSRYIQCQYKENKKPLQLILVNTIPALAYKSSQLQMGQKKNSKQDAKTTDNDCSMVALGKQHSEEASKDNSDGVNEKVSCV

This note sets out measurements from patent publication US20180071298A1, “METHODS FOR TREATING ALZHEIMER'S DISEASE” (Reviva Pharmaceuticals, Inc., priority 2015, published 2018).

Regarding `O=C1COc2ccc(OCCCCN3CCN(c4cccc(Cl)c4Cl)CC3)cc2N1` [Compound A, 6-(4-(4-(2,3-dichlorophenyl)piperazin-1-yl)butoxy)-2H-benzo[b][1,4]oxazin-3(-4H)-one], the Ki on Human recombinant 5-HT1A is 0.65 nM. The “Ki, Serotonin 5-HT2A” value in assay [1] stood at 111 nM.
